Measured values published in PubChem BioAssay AID226 (DTP/NCI, 2004).
Where “and” joins values, the source holds several entries; their conditions need not be identical. Identical values can stand only once. Inconclusive results and toxic doses are left out.

Tested on: B6C3F1 mice, intracerebral ependymoblastoma, median survival T/C
Assay: NCI In Vivo Anticancer Drug Screen. Data for tumor model Ependymoblastoma (intracerebral) in B6C3F1 mice
Conditions: endpoint: median survival time, higher = longer survival
Procedure: The antitumor activity of compounds was measured in mice bearing transplantable tumors. Survival or tumor size were measured and the results are expressed as the measurement made in the treated group (T) divided by the measurement made in the vehicle treated control group (C). The tumor model used in this assay is Ependymoblastoma (intracerebral) in B6C3F1 mice

[1] = dose: 16.0 mg/kg/injection, schedule: Q01DX005 (ip), vehicle: saline with Tween-80
[2] = dose: 16.0 mg/kg/injection, schedule: Q01DX005 (ip), vehicle: saline
[3] = dose: 32.0 mg/kg/injection, schedule: Q01DX005 (ip), vehicle: Klucel (hydroxypropylcellulose) (HPC)
[4] = dose: 32.0 mg/kg/injection, schedule: Q01DX005 (ip), vehicle: saline with Tween-80
[5] = dose: 32.0 mg/kg/injection, schedule: Q01DX005 (ip), vehicle: saline
[6] = dose: 64.0 mg/kg/injection, schedule: Q01DX005 (ip), vehicle: Klucel (hydroxypropylcellulose) (HPC)
[7] = dose: 64.0 mg/kg/injection, schedule: Q01DX005 (ip), vehicle: saline with Tween-80
[8] = dose: 128.0 mg/kg/injection, schedule: Q01DX005 (ip), vehicle: Klucel (hydroxypropylcellulose) (HPC)
[9] = dose: 128.0 mg/kg/injection, schedule: Q01DX005 (ip), vehicle: saline with Tween-80
[10] = dose: 256.0 mg/kg/injection, schedule: Q01DX005 (ip), vehicle: Klucel (hydroxypropylcellulose) (HPC)
[11] = dose: 100.0 mg/kg/injection, schedule: Q01DX005 (ip), vehicle: saline with Tween-80
[12] = dose: 4.0 mg/kg/injection, schedule: Q01DX005 (ip), vehicle: saline with Tween-80
[13] = dose: 8.0 mg/kg/injection, schedule: Q01DX005 (ip), vehicle: saline with Tween-80
[14] = dose: 2.0 mg/kg/injection, schedule: Q01DX005 (ip), vehicle: Klucel (hydroxypropylcellulose) (HPC)
[15] = dose: 4.0 mg/kg/injection, schedule: Q01DX005 (ip), vehicle: Klucel (hydroxypropylcellulose) (HPC)
[16] = dose: 8.0 mg/kg/injection, schedule: Q01DX005 (ip), vehicle: Klucel (hydroxypropylcellulose) (HPC)
[17] = dose: 16.0 mg/kg/injection, schedule: Q01DX005 (ip), vehicle: Klucel (hydroxypropylcellulose) (HPC)

In the case of `NC(=O)c1csc(C2OC(CO)C(O)C2O)n1` (configuration not stated), the T/C (dose: 9.38 mg/kg/injection, schedule: Q01DX009 (ip), vehicle: saline) is reported as 96 % of control, the T/C (dose: 18.8 mg/kg/injection, schedule: Q01DX009 (ip), vehicle: saline) is reported as 107 % of control and the T/C (dose: 37.5 mg/kg/injection, schedule: Q01DX005 (ip), vehicle: saline) is reported as 93 % of control and 110 % of control. The T/C (dose: 37.5 mg/kg/injection, schedule: Q01DX009 (ip), vehicle: saline) was 99 % of control and 110 % of control, the T/C (dose: 75.0 mg/kg/injection, schedule: Q01DX005 (ip), vehicle: saline) was 101 % of control and 107 % of control and the T/C (dose: 75.0 mg/kg/injection, schedule: Q01DX009 (ip), vehicle: saline) was 112 % of control and 121 % of control. For the same compound, the T/C (dose: 150.0 mg/kg/injection, schedule: Q01DX005 (ip), vehicle: saline) was 113 % of control and 116 % of control, the T/C (dose: 150.0 mg/kg/injection, schedule: Q01DX009 (ip), vehicle: saline) was 110 % of control and 119 % of control and the T/C (dose: 300.0 mg/kg/injection, schedule: Q01DX005 (ip), vehicle: saline) was 108 % of control and 114 % of control. For the same compound, the T/C (dose: 300.0 mg/kg/injection, schedule: Q01DX009 (ip), vehicle: saline) was 114 % of control, the T/C (dose: 600.0 mg/kg/injection, schedule: Q01DX005 (ip), vehicle: saline) was 101 % of control and 114 % of control and the T/C (dose: 600.0 mg/kg/injection, schedule: Q01DX009 (ip), vehicle: saline) was 123 % of control.
For `CN(Cc1cnc2nc(N)nc(N)c2n1)c1c(Cl)cc(C(=O)NC(CCC(=O)O)C(=O)O)cc1Cl` (configuration not stated), the T/C [1] was 95 % of control and 114 % of control, the T/C [2] was 100 % of control and the T/C [3] was 100 % of control. The T/C [4] was 97 % of control and 107 % of control, the T/C [5] was 92 % of control and 103 % of control and the T/C [6] was 104 % of control. For the same compound, the T/C [7] was 100 % of control and 107 % of control, the T/C (dose: 64.0 mg/kg/injection, schedule: Q01DX005 (ip), vehicle: saline) was 101 % of control and 104 % of control and the T/C [8] was 89 % of control. For the same compound, the T/C [9] was 98 % of control and 100 % of control, the T/C (dose: 128.0 mg/kg/injection, schedule: Q01DX005 (ip), vehicle: saline) was 100 % of control and 106 % of control and the T/C [10] was 96 % of control.
`COC(=O)c1cccc(N=NN(C)C)c1` was tested, and the T/C (dose: 8.0 mg/kg/injection, schedule: Q01DX005 (ip), vehicle: saline + alcohol) was 98 % of control, the T/C (dose: 16.0 mg/kg/injection, schedule: Q01DX005 (ip), vehicle: saline + alcohol) was 108 % of control and the T/C (dose: 32.0 mg/kg/injection, schedule: Q01DX005 (ip), vehicle: saline + alcohol) was 123 % of control. For the same compound, the T/C [11] was 114 % of control and the T/C (dose: 128.0 mg/kg/injection, schedule: Q01DX005 (ip), vehicle: saline + alcohol) was 162 % of control.
`COC(=O)C(Cc1ccc(N(CCCl)CCCl)cc1)N=NNc1nc[nH]c1C(N)=O` (configuration not stated) was tested, and the T/C [12] was 107 % of control, the T/C [13] was 101 % of control and 112 % of control and the T/C [1] was 104 % of control and 118 % of control. For the same compound, the T/C [4] was 123 % of control.
In the case of `O=C(O)CCCc1ccc(N(CCCl)CCCl)cc1`, the T/C (dose: 0.5 mg/kg/injection, schedule: Q01DX005 (ip), vehicle: Klucel (hydroxypropylcellulose) (HPC)) is reported as 114 % of control, the T/C (dose: 1.0 mg/kg/injection, schedule: Q01DX005 (ip), vehicle: Klucel (hydroxypropylcellulose) (HPC)) is reported as 114 % of control and the T/C (dose: 1.0 mg/kg/injection, schedule: Q01DX005 (ip), vehicle: saline with Tween-80) is reported as 120 % of control. The T/C (dose: 2.0 mg/kg/injection, schedule: Q01DX001 (ip), vehicle: Klucel (hydroxypropylcellulose) (HPC)) was 103 % of control and 104 % of control (2×), the T/C [14] was 113 % of control and the T/C (dose: 4.0 mg/kg/injection, schedule: Q01DX001 (ip), vehicle: Klucel (hydroxypropylcellulose) (HPC)) was 97 % of control and 104 % of control and 105 % of control. For the same compound, the T/C [15] was 105 % of control, the T/C (dose: 8.0 mg/kg/injection, schedule: Q01DX001 (ip), vehicle: Klucel (hydroxypropylcellulose) (HPC)) was 100 % of control and 101 % of control and 108 % of control and the T/C [16] was 113 % of control. The T/C [13] was 153 % of control, the T/C (dose: 16.0 mg/kg/injection, schedule: Q01DX001 (ip), vehicle: Klucel (hydroxypropylcellulose) (HPC)) was 104 % of control and 108 % of control and 110 % of control and the T/C [1] was 180 % of control. The T/C (dose: 32.0 mg/kg/injection, schedule: Q01DX001 (ip), vehicle: Klucel (hydroxypropylcellulose) (HPC)) was 114 % of control and 117 % of control and 121 % of control.
With `CCCCCCC(=O)O[C@H]1CC[C@H]2[C@@H]3CCC4=CC(=O)CC[C@]4(C)[C@H]3CC[C@]12C` the T/C [16] was 101 % of control and 110 % of control, the T/C [17] was 92 % of control and 100 % of control and the T/C [3] was 95 % of control and 110 % of control. The T/C [6] was 108 % of control and 89 % of control, the T/C [8] was 95 % of control and 96 % of control and the T/C [10] was 97 % of control.
In the case of `CCC(C)N(C)/N=N/c1nc[nH]c1C(N)=O` (configuration not stated), the T/C [4] is reported as 151 % of control, the T/C [7] is reported as 153 % of control and the T/C [9] is reported as 153 % of control.
With `Nc1nc([Se])c2ncn(C3OC(CO)C(O)C3O)c2n1` (configuration not stated) the T/C [12] was 113 % of control, the T/C (dose: 4.0 mg/kg/injection, schedule: Q01DX005 (ip), vehicle: saline) was 102 % of control and the T/C [16] was 106 % of control. For the same compound, the T/C [13] was 109 % of control, the T/C (dose: 8.0 mg/kg/injection, schedule: Q01DX005 (ip), vehicle: saline) was 95 % of control and 105 % of control and 114 % of control and the T/C [17] was 106 % of control. For the same compound, the T/C [2] was 102 % of control and 108 % of control, the T/C [3] was 106 % of control and the T/C [5] was 116 % of control and 121 % of control.
In the case of `Nc1ccc(S(=O)(=O)c2ccc(N)cc2)cc1`, the T/C (dose: 25.0 mg/kg/injection, schedule: Q01DX005 (ip), vehicle: saline with Tween-80) is reported as 122 % of control, the T/C (dose: 50.0 mg/kg/injection, schedule: Q01DX005 (ip), vehicle: saline with Tween-80) is reported as 100 % of control and the T/C [11] is reported as 108 % of control.
`O=P1(N(CCCl)CCCl)NCCCO1` (configuration not stated) was tested, and the T/C (dose: 40.0 mg/kg/injection, schedule: Q01DX001 (ip), vehicle: saline) was 109 % of control and the T/C (dose: 320.0 mg/kg/injection, schedule: Q01DX001 (ip), vehicle: saline) was 163 % of control.
For `CC(=O)CC(c1ccccc1)c1c(O)c2ccccc2oc1=O` (configuration not stated), the T/C (dose: 0.05 mg/kg/injection, schedule: Q01DX005 (ip), vehicle: Klucel (hydroxypropylcellulose) (HPC)) was 113 % of control, the T/C (dose: 0.1 mg/kg/injection, schedule: Q01DX005 (ip), vehicle: Klucel (hydroxypropylcellulose) (HPC)) was 100 % of control and 108 % of control and the T/C (dose: 0.2 mg/kg/injection, schedule: Q01DX005 (ip), vehicle: Klucel (hydroxypropylcellulose) (HPC)) was 105 % of control and 110 % of control. For the same compound, the T/C (dose: 0.4 mg/kg/injection, schedule: Q01DX005 (ip), vehicle: Klucel (hydroxypropylcellulose) (HPC)) was 98 % of control and 104 % of control, the T/C (dose: 0.8 mg/kg/injection, schedule: Q01DX005 (ip), vehicle: Klucel (hydroxypropylcellulose) (HPC)) was 101 % of control and 88 % of control and the T/C (dose: 1.6 mg/kg/injection, schedule: Q01DX005 (ip), vehicle: Klucel (hydroxypropylcellulose) (HPC)) was 98 % of control.
In the case of `Cc1[nH]c(=O)[nH]c(=O)c1N(CCF)CCCl`, the T/C [14] is reported as 90 % of control, the T/C (dose: 2.0 mg/kg/injection, schedule: Q01DX005 (ip), vehicle: saline with Tween-80) is reported as 98 % of control and 100 % of control and the T/C [15] is reported as 93 % of control and 108 % of control. The T/C [12] was 102 % of control and 105 % of control, the T/C [16] was 97 % of control and 114 % of control and the T/C [13] was 96 % of control and 100 % of control. For the same compound, the T/C [17] was 107 % of control and 89 % of control, the T/C [1] was 106 % of control and 107 % of control and the T/C [3] was 94 % of control and 123 % of control. For the same compound, the T/C [4] was 100 % of control.
In the case of `COc1cc(NC(=O)CN(CCCl)CCCl)cc(OC)c1OC`, the T/C (dose: 25.0 mg/kg/injection, schedule: Q01DX009 (ip), vehicle: saline with Tween-80) is reported as 113 % of control and the T/C (dose: 50.0 mg/kg/injection, schedule: Q01DX009 (ip), vehicle: saline with Tween-80) is reported as 113 % of control.
